From patent publication US11059815B2, “Synthesis of small molecule histone deacetylase 6 degraders, compounds formed thereby, and pharmaceutical compositions containing them” (Wisconsin Alumni Research Foundation, priority 2018, dated 2021)

Columns and labels:
HDAC6 and related genes = test: qRT-PCR of mRNA level of HDAC6 and related genes; type: cell-based, human; conditions: 6 h treatment
Source text: To support the involvement of ubiquitination-proteasome system for the decrease of HDAC6 protein level, the degrader was co-treated with binding competitors or pathway blockers. […] Moreover, it also confirmed the role of the pomalidomide moiety in modulating IKZFs. […] Additionally, proteasome inhibitor MG132 and Bortezomib were used to block the down-stream proteasome degradation. […] Acetylated tubulin level was suppressed as well. This confirms that HDAC6 degradation is responsible for the acetylation of its substrates rather than inhibition by the “warhead” moiety. To exclude the possible transcriptional impact by degraders, qRT-PCR was used to examine the mRNA level of HDAC6 and related genes (data not shown). […] This is consistent with the hypothesis that the cellular knockdown of HDAC6 is due to direct protein degradation, not by transcriptional downregulation.
After treatment, cells were harvested and washed with cold PBS twice. […] The concentration of RNA was measured by Plate Reader. […] Ct value at automatically selected threshold was reported and calculated by 2^−ΔΔCt method. (Livak, K. J.; Schmittgen, T. D. “Analysis of Relative Gene Expression Data Using Real-Time Quantitative PCR and the 2 C T Method” METHODS 2001, 25, 402-408. The bar graph was generated and by GraphPad Prism.

HDAC6 = target: T1, HDAC6 (Homo sapiens, UniProt Q9UBN7); test: In-cell ELISA of HDAC6 protein level in MM1S cells; type: cell-based; conditions: 1 nM to 3 μM, 6 h
T1 construct: an in-cell ELISA was used to analyze the HDAC6 content in MM1S cells; endogenous in cells; host or cells: MM1S (ATCC CRL-2974)
T1 sequence (Q9UBN7 1-1215): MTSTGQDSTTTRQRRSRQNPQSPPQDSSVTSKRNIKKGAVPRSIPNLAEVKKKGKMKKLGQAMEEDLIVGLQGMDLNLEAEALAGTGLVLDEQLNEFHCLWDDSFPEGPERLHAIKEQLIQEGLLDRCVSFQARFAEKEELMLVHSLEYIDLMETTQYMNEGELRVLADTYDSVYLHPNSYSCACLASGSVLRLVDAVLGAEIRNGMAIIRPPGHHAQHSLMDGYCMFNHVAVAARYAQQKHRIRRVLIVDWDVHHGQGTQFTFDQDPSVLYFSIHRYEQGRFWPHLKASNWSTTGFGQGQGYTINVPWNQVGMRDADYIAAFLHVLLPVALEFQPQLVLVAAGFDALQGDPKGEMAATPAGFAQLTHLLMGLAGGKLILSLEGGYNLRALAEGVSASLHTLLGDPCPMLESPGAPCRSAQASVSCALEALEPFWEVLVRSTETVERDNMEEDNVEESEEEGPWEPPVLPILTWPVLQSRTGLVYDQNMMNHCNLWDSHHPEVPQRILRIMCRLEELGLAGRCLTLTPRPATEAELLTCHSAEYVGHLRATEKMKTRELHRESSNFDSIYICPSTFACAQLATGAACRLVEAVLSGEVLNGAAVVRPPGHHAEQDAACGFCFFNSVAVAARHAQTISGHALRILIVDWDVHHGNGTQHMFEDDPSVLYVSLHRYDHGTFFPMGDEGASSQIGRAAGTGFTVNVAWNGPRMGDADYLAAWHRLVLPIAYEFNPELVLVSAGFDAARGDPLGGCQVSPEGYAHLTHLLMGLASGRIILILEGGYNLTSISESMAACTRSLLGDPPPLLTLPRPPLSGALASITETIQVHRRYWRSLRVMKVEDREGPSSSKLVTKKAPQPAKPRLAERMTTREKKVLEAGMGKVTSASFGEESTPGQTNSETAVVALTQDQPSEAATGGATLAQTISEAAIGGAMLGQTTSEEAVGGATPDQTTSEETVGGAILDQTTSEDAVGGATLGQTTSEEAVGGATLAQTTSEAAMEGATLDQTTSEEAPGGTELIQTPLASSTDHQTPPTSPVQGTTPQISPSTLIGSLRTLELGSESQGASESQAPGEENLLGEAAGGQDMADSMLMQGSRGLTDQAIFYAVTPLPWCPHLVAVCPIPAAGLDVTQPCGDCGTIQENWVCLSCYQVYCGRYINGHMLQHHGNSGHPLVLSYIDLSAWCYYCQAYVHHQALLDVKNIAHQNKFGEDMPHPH

| DC50 (HDAC6; read-out: DC50 (Part 2)) [nM] | Dmax (HDAC6; MM1.S, read-out: Dmax (Part 2)) [%] | SMILES | effect on mRNA level of HDACs and IKZFs (HDAC6 and related genes) |
| --- | --- | --- | --- |
| – | – | CCCCN(Cc1ccc(C(=O)NO)cc1)C(=O)Nc1ccc(OCCCCCn2cc(CNc3cccc4c3C(=O)N(C3CCC(=O)NC3=O)C4=O)nn2)cc1 (stereo not drawn) [Compound 12d, 4-((1-butyl-3-(4-((5-(4-(((2-(2,6-dioxopiperidin-3-yl)-1,3-dioxoisoindolin-4-yl)amino)methyl)-1H-1,2,3-triazol-1-yl)pentyl)oxy)phenyl)ureido)methyl)-N-hydroxybenzamide] | Little to no effects |
| 2.2 | 85.6 | CCCCN(Cc1ccc(C(=O)NO)cc1)C(=O)Nc1ccc(OCCCCCn2cc(CNc3cccc4c3C(=O)N(C3CCC(=O)NC3=O)C4=O)nn2)cc1 (stereo not drawn) [Compound 2] | – |
